Measured values published in patent US7468353B2, “Biologically active substance of a vasoactive intestinal peptide for treating interstitial lung diseases” (Mondobiotech Laboratories Anstalt, priority 2003, dated 2008).

Tests used:
PACAP receptor type I = molecular target: T1, PACAP receptor type I (Homo sapiens, UniProt P41586); settings: cited from earlier work
T1 sequence (P41586 21-468): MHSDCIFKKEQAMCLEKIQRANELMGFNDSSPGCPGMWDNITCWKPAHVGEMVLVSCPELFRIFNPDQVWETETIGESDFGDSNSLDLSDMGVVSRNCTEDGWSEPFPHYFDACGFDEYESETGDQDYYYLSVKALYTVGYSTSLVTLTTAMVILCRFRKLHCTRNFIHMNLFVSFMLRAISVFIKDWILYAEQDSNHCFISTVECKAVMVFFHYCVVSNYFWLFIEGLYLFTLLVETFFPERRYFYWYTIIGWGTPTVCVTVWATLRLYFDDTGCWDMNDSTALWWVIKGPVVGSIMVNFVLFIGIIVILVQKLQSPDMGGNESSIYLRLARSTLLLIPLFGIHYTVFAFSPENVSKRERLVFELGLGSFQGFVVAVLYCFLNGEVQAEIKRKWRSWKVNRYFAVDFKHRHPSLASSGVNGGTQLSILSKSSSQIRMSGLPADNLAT

PACAP receptor type II = settings: PACAP versus VIP; cited from earlier work
[1] = tested on: MHC II surface molecules on human dentritic cells; test: Effect of VIP on human dentritic cells: MHC II surface molecules, fluorescence-activated cell analysis; format: cell-based
Text: [The procedure below names another target; the source lists this target under the same test.] (§1) FIGS. 1-11 show the effect of VIP on the maturation of human dentritic cells. […] is a characteristic surface protein on mature dentritic cells. Low rates of said protein indicate non-maturation of cells and thus, the inability to execute their biological function. […] Said reduction is indicated by the value M1 38.22—when measuring after application of 9.1 μmol—and compared to the value M1 81.26 (FIG. 10) of untreated cells (FIG. 1)—in the fluorescence-activated cell analysis. This procedure consists of searching the cell surfaces with the help of fluorescence-marked antibodies for the corresponding antigens (here: CD 83).

[2] = tested on: MHC I surface molecules on human dentritic cells; test: Effect of VIP on human dentritic cells: MHC I surface molecules, fluorescence-activated cell analysis; format: cell-based
[3] = tested on: CD 83 surface molecules on human dentritic cells; test: Effect of VIP on maturation of human dentritic cells: CD 83 surface molecules, fluorescence-activated cell analysis; format: cell-based
Text: as §1

[4] = VIP 9.1 μM, marker All, FIG. 11

His-Ser-Asp-Gly-Ile-Phe-Thr-Asp-Ser-Tyr-Ser-Arg-Tyr-Arg-Lys-Gln-Met-Ala-Val-Lys-Lys-Tyr-Leu-Ala-Ala-Val-Leu-Gly-Lys-Arg-Tyr-Lys-Gln-Arg-Val-Lys-Asn-Lys [PACAP]
affinity of receptor type I (PACAP receptor type I): high affinity | affinity of receptor type II (PACAP receptor type II): similar

His-Ser-Asp-Ala-Val-Phe-Thr-Asp-Asn-Tyr-Thr-Arg-Leu-Arg-Lys-Gln-Met-Ala-Val-Lys-Lys-Tyr-Leu-Asn-Ser-Ile-Leu-Asn [VIP]
value M1 for MHC II ([1]; 9.1 μmol VIP, untreated cells 83.94): 77.73 | MHC II % Gated, marker All ([1]; VIP 1 μM, FIG. 8): 100.00% | MHC II Mean, marker All ([1]; VIP 1 μM, FIG. 8): 170.33 | MHC II % Gated, marker M1 ([1]; VIP 1 μM, FIG. 8): 77.41% | MHC II Mean, marker M1 ([1]; VIP 1 μM, FIG. 8): 207.21 | MHC II % Gated, marker All ([1]; VIP 9.1 μM, FIG. 12): 100.00% | MHC II Mean, marker All ([1]; VIP 9.1 μM, FIG. 12): 175.73 | MHC II % Gated, marker M1 ([1]; VIP 9.1 μM, FIG. 12): 77.73% | MHC II Mean, marker M1 ([1]; VIP 9.1 μM, FIG. 12): 213.25 | inhibition of MHC II surface molecules compared with CD 83 ([1]; same dose of VIP): far less inhibited | value M1 for MHC 1 ([2]; 9.1 μmol VIP, untreated cells 85.59): 70.57 | MHC I % Gated, marker All ([2]; VIP 1 μM, marker All, FIG. 7): 100.00% | MHC I Mean, marker All ([2]; VIP 1 μM, marker All, FIG. 7): 200.61 | MHC I % Gated, marker M1 ([2]; VIP 1 μM, marker M1, FIG. 7): 78.69% | MHC I Mean, marker M1 ([2]; VIP 1 μM, marker M1, FIG. 7): 242.97 | MHC 1 % Gated, marker All [2, 4]: 100.00% | MHC 1 Mean, marker All [2, 4]: 136.67 | MHC 1 % Gated, marker M1 ([2]; VIP 9.1 μM, marker M1, FIG. 11): 70.57% | MHC 1 Mean, marker M1 ([2]; VIP 9.1 μM, marker M1, FIG. 11): 174.61 | inhibition of MHC I surface molecules compared with CD 83 ([2]; same dose of VIP): far less inhibited | affinity of receptor type I (PACAP receptor type I): very low affinity | affinity of receptor type II (PACAP receptor type II): similar | CD 83 % Gated, marker All ([3]; VIP 1 μM, FIG. 6): 100.00% | CD 83 Mean, marker All ([3]; VIP 1 μM, FIG. 6): 108.13 | CD 83 % Gated, marker M1 ([3]; VIP 1 μM, FIG. 6): 69.70% | CD 83 Mean, marker M1 ([3]; VIP 1 μM, FIG. 6): 137.30 | CD 83 % Gated, marker All ([3]; VIP 9.1 μM, FIG. 10): 100.00% | CD 83 Mean, marker All ([3]; VIP 9.1 μM, FIG. 10): 76.48 | CD 83 % Gated, marker M1 ([3]; VIP 9.1 μM, FIG. 10): 38.22% | CD 83 Mean, marker M1 ([3]; VIP 9.1 μM, FIG. 10): 143.06 | value M1 for CD 83 ([3]; after application of 9.1 μmol VIP, untreated cells 81.26): 38.22 | effect on CD 83 surface molecules ([3]; application of 1 μmol VIP (FIG. 5)): dramatic reduction | effect on CD 83 surface molecules ([3]; application of 9.1 μmol VIP (FIG. 9)): dramatic reduction
